Blank lines part the entries; values can stand above or below the compound they belong to.
Key:
COLO205 xenograft tumors = test: Tumor growth inhibition in COLO205 xenograft tumors; type: in vivo; details: 30 mg/kg; for Average Tumor Volume D0: D0, in mm³; for Average Tumor Volume D21: D21, in mm³
Experimental: COLO205 cells were cultured with RPMI-1640 medium containing 10% fetal bovine serum (FBS) at 37° C. in 5% CO2 incubator. Logarithmic growth phase cells were collected. COLO205 cells (5×10^6 in 200 μL PBS) were implanted subcutaneously into the left flank region, and tumor growth was monitored. Tumor volume (V) was estimated from the length (l) and width (w) of the tumor using the following formula: V=1/2×l×w^2. Treatment started when average tumor size was 100-150 mm^3. Measuring subcutaneous tumor volume 2 to 3 times every week. Drug efficacy was assessed as Tumor Growth Inhibition (TGI) and Tumor increment rate T/C (%). TGI was defined as (1−T/C)×100%, wherein T/C (%) presented the ratio of the change in mean tumor volume of the treated group and of the control group.

CDK2/cyclin A = molecular target: T1, CDK2/cyclin A (Homo sapiens, UniProt P24941); test: CDK kinase inhibition assay (33P-ATP HotSpot filter binding); type: biochemical; details: substrate Histone H1, 10 μM ATP
T1 construct: purchased Invitrogen PR4448B
Experimental: (§1) Testing compounds were dissolved in 100% DMSO to specific concentration. Compounds were tested in 10-dose mode with 3-fold serial dilution starting at 100 μM. The serial dilution was conducted by epMotion 5070 in DMSO.
(§2) Each substrate was prepared in freshly prepared Reaction Buffer (20 mM Hepes (pH 7.5), 10 mM MgCl2, 1 mM EGTA, 0.02% Brij35, 0.02 mg/ml BSA, 0.1 mM Na3VO4, 2 mM DTT, 1% DMSO). Each kinase was delivered into the substrate solution and the solution was gently mixed. 0.05 μL Compounds were delivered into 5 μL kinase reaction mixture in a 384 well plate by Acoustic technology (Echo550; nanoliter range), and the mixture was incubated for 20 min at room temperature. 0.01 μL of 5 mM ATP with ^33P-ATP (PerkinElmer, Cat# NEG602H001MC, Specific activity […]) was delivered into the reaction mixture to initiate the reaction, and the final concentration of ATP in the mixture was 10 μM. The resulted solutions were incubated for 2 hours at room temperature, the radioactivity incorporated is determined by the proprietary “HotSpot” platform, which is a miniaturized filter-binding method (using this paper as reference: Anastassiadis et al, 2011 Nature Biotech) IC50 value of each compound was generated using GraphPad Prism software.
(§3) Select compounds prepared as described above were assayed according to the biological procedures described herein.

CDK1/cyclin B = molecular target: T2, CDK1/cyclin B (Homo sapiens, UniProt P06493); test: as above; type: biochemical; details: substrate Histone H1, 10 μM ATP
T2 construct: purchased Invitrogen PR4768C
T2 sequence (P06493 whole entry): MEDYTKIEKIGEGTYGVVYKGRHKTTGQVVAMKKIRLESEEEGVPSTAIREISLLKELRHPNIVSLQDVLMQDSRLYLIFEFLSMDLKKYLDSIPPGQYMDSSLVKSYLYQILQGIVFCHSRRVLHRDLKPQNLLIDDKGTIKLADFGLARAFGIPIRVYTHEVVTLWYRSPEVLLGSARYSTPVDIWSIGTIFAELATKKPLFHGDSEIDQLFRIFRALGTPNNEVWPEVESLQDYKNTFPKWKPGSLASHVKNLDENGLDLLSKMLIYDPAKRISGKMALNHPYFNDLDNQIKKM
T2 sequence (P14635 whole entry partner): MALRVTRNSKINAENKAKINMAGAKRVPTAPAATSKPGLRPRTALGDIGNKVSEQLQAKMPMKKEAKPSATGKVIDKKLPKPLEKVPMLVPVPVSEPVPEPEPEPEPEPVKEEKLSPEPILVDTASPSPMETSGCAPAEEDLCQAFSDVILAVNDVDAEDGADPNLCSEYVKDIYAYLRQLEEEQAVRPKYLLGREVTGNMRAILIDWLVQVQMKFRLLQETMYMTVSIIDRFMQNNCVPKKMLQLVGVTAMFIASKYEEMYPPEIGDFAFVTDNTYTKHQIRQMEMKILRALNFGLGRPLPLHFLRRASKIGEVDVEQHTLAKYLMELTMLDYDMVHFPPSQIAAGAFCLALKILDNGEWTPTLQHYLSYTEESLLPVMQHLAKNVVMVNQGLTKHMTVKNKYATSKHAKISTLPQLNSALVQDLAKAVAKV
Experimental: as §1, §2, §3

CDK4/cyclin D1 = molecular target: T3, CDK4/cyclin D1 (Homo sapiens, UniProt P11802); test: as above; type: biochemical; details: substrate RB Protein, 10 μM ATP
T3 construct: purchased Invitrogen PV4436
T3 sequence (P11802 whole entry): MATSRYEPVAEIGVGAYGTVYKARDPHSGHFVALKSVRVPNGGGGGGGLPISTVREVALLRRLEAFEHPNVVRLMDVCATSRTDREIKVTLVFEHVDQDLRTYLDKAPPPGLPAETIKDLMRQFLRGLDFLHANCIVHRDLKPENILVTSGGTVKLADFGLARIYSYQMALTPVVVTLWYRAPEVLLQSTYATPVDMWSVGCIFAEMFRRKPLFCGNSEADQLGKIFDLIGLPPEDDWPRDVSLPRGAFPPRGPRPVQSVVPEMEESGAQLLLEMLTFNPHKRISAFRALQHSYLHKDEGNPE
T3 sequence (P24385 whole entry partner): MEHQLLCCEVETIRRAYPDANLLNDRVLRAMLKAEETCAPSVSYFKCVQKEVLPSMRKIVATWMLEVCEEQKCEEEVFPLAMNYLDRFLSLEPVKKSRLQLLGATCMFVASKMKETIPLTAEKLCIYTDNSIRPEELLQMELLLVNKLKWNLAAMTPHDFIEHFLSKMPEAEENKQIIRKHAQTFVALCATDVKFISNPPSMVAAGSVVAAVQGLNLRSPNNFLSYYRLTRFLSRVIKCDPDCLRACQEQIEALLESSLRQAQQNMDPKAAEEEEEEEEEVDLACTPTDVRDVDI
Experimental: as §1, §2, §3

CDK6/cyclin D1 = molecular target: T4, CDK6/cyclin D1 (Homo sapiens, UniProt Q00534); test: as above; type: biochemical; details: substrate RB Protein, 10 μM ATP
T4 construct: purchased Invitrogen PR8422B
T4 sequence (Q00534 whole entry): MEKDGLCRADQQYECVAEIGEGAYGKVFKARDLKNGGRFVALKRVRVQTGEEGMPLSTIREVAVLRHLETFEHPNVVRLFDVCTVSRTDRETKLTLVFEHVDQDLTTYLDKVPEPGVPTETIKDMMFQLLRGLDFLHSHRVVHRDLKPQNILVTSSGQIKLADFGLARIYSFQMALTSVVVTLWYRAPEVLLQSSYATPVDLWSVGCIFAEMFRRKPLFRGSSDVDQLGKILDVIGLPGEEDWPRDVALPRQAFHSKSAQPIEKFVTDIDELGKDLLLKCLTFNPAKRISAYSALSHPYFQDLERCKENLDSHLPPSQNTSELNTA
T4 sequence (P24385 whole entry partner): as the sequence (P24385 whole entry partner) above
Experimental: as §1, §2, §3

BE(2)-C cell = test: Cell proliferation assay (MTS) in BE(2)-C cells; type: cell-based; details: Homo sapiens, inhibition of BE(2)-C cell proliferation, 48 h
In short: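 BE(2)-C cells (3000/well, DMEM + 10% FBS) were treated for 48 h at 37 °C with compound at 1.5–10000 nM in nine concentrations. Viability was measured by MTS (2 h, stopped with SDS) at 490/650 nm, and IC50 was calculated from the dose-response.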

- IC50 (CDK2/cyclin A): 50.5 nM
- IC50 (CDK1/cyclin B): 403 nM
- IC50 (CDK4/cyclin D1): < 5 nM
- IC50 (CDK6/cyclin D1): < 5 nM
SMILES: CCN1CCN(Cc2ccc(Nc3ncc(F)c(-c4cc(F)c5nc6n(c5c4)[C@H](C(F)F)CC6)n3)nc2)CC1 [Example 12, (S)-4-(1-(difluoromethyl)-5-fluoro-2,3-dihydro-1H-benzo[d]pyrrolo[1,2-a]imidazol-7-yl)-N-(5-((4-ethylpiperazin-1-yl)methyl)pyridin-2-yl)-5-fluoropyrimidin-2-amine]
- Average Tumor Volume D0 (COLO205 xenograft tumors): 113 ± 3.4
- T/C % D21 (COLO205 xenograft tumors): 29%
- TGI % D21 (COLO205 xenograft tumors): 71%
- Average Tumor Volume D21 (COLO205 xenograft tumors): 584 ± 86
- IC50 (BE(2)-C cell): 10 to 100 nM

- IC50 (CDK2/cyclin A): 19.2 nM
- IC50 (CDK1/cyclin B): 50.5 nM
- IC50 (CDK4/cyclin D1): < 5 nM
- IC50 (CDK6/cyclin D1): < 5 nM
SMILES: CN1CCN(c2ccc(Nc3ncc(F)c(-c4cc(F)c5nc6n(c5c4)[C@H](C(F)F)CC6)n3)nc2)CC1 [Example 39, (S)-4-(1-(difluoromethyl)-5-fluoro-2,3-dihydro-1H-benzo[d]pyrrolo[1,2-a]imidazol-7-yl)-5-fluoro-N-(5-(4-methylpiperazin-1-yl)pyridin-2-yl)pyrimidin-2-amine]
- IC50 (BE(2)-C cell): > 100 nM

SMILES: CN1CCN(Cc2ccc(Nc3ncc(F)c(-c4cc(F)c5nc6n(c5c4)[C@H](C(F)F)CC6)n3)nc2)CC1 [Example 11, (S)-4-(1-(difluoromethyl)-5-fluoro-2,3-dihydro-1H-benzo[d]pyrrolo[1,2-a]imidazol-7-yl)-5-fluoro-N-(5-((4-methylpiperazin-1-yl)methyl)pyridin-2-yl)pyrimidin-2-amine]
- Average Tumor Volume D0 (COLO205 xenograft tumors): 110 ± 3.2
- T/C % D21 (COLO205 xenograft tumors): 28%
- TGI % D21 (COLO205 xenograft tumors): 72%
- Average Tumor Volume D21 (COLO205 xenograft tumors): 570 ± 57
- IC50 (BE(2)-C cell): 10 to 100 nM

SMILES: CCN1CCN(Cc2ccc(Nc3ncc(F)c(-c4cc(F)c5nc6n(c5c4)[C@H](C(F)(F)F)CC6)n3)nc2)CC1 [Example 18, (S)—N-(5-((4-ethylpiperazin-1-yl)methyl)pyridin-2-yl)-5-fluoro-4-(5-fluoro-1-(trifluoromethyl)-2,3-dihydro-1H-benzo[d]pyrrolo[1,2-a]imidazol-7-yl)pyrimidin-2-amine]
- IC50 (BE(2)-C cell): 10 to 100 nM

SMILES: CC1(C)CCc2nc3c(F)cc(-c4nc(Nc5ccc(CN6C7CCC6CNC7)cn5)ncc4F)cc3n21 [Example 126, N-(5-((3,8-diazabicyclo[3.2.1]octan-8-yl)methyl)pyridin-2-yl)-5-fluoro-4-(5-fluoro-1,1-dimethyl-2,3-dihydro-1H-benzo[d]pyrrolo[1,2-a]imidazol-7-yl)pyrimidin-2-amine]
- IC50 (BE(2)-C cell): 10 to 100 nM

SMILES: CN1C2CC1CN(Cc1ccc(Nc3ncc(F)c(-c4cc(F)c5nc6n(c5c4)C4(CC6)CC4)n3)nc1)C2 [Example 133, 5-fluoro-4-(5-fluoro-2,3-dihydrospiro[benzo[d]pyrrolo[1,2-a]imidazole-1,1′-cyclopropan]-7-yl)-N-(5-((6-methyl-3,6-diazabicyclo[3.1.1]heptan-3-yl)methyl)pyridin-2-yl)pyrimidin-2-amine]
- IC50 (BE(2)-C cell): 10 to 100 nM

SMILES: Fc1cnc(Nc2ccc(CN3CCNCC3)cn2)nc1-c1cc(F)c2nc3n(c2c1)C1(CC3)CC1 [Example 13, 5-fluoro-4-(5-fluoro-2,3-dihydrospiro[benzo[d]pyrrolo[1,2-a]imidazole-1,1′-cyclopropan]-7-yl)-N-(5-(piperazin-1-ylmethyl)pyridin-2-yl)pyrimidin-2-amine]
- IC50 (BE(2)-C cell): > 100 nM

SMILES: COC[C@H]1CCc2nc3c(F)cc(-c4nc(Nc5ccc(CN6CCNCC6)cn5)ncc4F)cc3n21 [Example 158, (R)-5-fluoro-4-(5-fluoro-1-(methoxymethyl)-2,3-dihydro-1H-benzo[d]pyrrolo[1,2-a]imidazol-7-yl)-N-(5-(piperazin-1-ylmethyl)pyridin-2-yl)pyrimidin-2-amine]
- IC50 (BE(2)-C cell): > 1000 nM

SMILES: CN1CCC2(CC1)CN(Cc1ccc(Nc3ncc(F)c(-c4cc(F)c5nc6n(c5c4)[C@H](C(F)F)CC6)n3)nc1)C2 [Example 43, (S)-4-(1-(difluoromethyl)-5-fluoro-2,3-dihydro-1H-benzo[d]pyrrolo[1,2-a]imidazol-7-yl)-5-fluoro-N-(5-((7-methyl-2,7-diazaspiro[3.5]nonan-2-yl)methyl)pyridin-2-yl)pyrimidin-2-amine]
- IC50 (BE(2)-C cell): 10 to 100 nM

SMILES: CCN1CC2(CCN(Cc3ccc(Nc4ncc(F)c(-c5cc(F)c6nc7n(c6c5)C(C)(C)CC7)n4)nc3)CC2)C1 [Example 116, N-(5-((2-ethyl-2,7-diazaspiro[3.5]nonan-7-yl)methyl)pyridin-2-yl)-5-fluoro-4-(5-fluoro-1,1-dimethyl-2,3-dihydro-1H-benzo[d]pyrrolo[1,2-a]imidazol-7-yl)pyrimidin-2-amine]
- IC50 (BE(2)-C cell): 10 to 100 nM

SMILES: CCN1CC2CCC(C1)N2Cc1ccc(Nc2ncc(F)c(-c3cc(F)c4nc5n(c4c3)[C@H](CF)CC5)n2)nc1 [Example 34, N-(5-((3-ethyl-3,8-diazabicyclo[3.2.1]octan-8-yl)methyl)pyridin-2-yl)-5-fluoro-4-((S)-5-fluoro-1-(fluoromethyl)-2,3-dihydro-1H-benzo[d]pyrrolo[1,2-a]imidazol-7-yl)pyrimidin-2-amine]
- IC50 (BE(2)-C cell): 10 to 100 nM

SMILES: CN1CCC2(CC1)CCN(Cc1ccc(Nc3ncc(F)c(-c4cc(F)c5nc6n(c5c4)[C@H](C(F)F)CC6)n3)nc1)CC2 [Example 52, (S)-4-(1-(difluoromethyl)-5-fluoro-2,3-dihydro-1H-benzo[d]pyrrolo[1,2-a]imidazol-7-yl)-5-fluoro-N-(5-((9-methyl-3,9-diazaspiro[5.5]undecan-3-yl)methyl)pyridin-2-yl)pyrimidin-2-amine]
- IC50 (BE(2)-C cell): > 100 nM

Reference: US10450316B2, “Certain protein kinase inhibitor” (Chongqing Fochon Pharmaceutical Co., Ltd., priority 2015, dated 2019)
